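Assay format: 96-well plates, 48-hour exposure. Abbreviation: GI50, concentration required for 50% inhibition of growth. The concentration for full growth arrest is given as TGI.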
Key:
Assay in all cases: growth of human tumour cells (NCI), 48 h
NCI/ADR-RES ovarian = system: NCI/ADR-RES ovarian
RPMI-8226 leukemia = system: RPMI-8226 leukemia
HCT-15 colon = system: HCT-15 colon
TK-10 renal = system: TK-10 renal
MOLT-4 leukemia = system: MOLT-4 leukemia
PC-3 prostate = system: PC-3 prostate
NCI-H460 lung = system: NCI-H460 lung
SK-MEL-28 melanoma = system: SK-MEL-28 melanoma
U251 CNS = system: U251 CNS
SK-OV-3 ovarian = system: SK-OV-3 ovarian

SMILES	TGI (NCI/ADR-RES ovarian)	TGI (RPMI-8226 leukemia)	TGI (HCT-15 colon)	TGI (TK-10 renal)	TGI (MOLT-4 leukemia)	TGI (PC-3 prostate)	TGI (NCI-H460 lung)	TGI (SK-MEL-28 melanoma)	TGI (U251 CNS)	TGI (SK-OV-3 ovarian)	GI50 (RPMI-8226 leukemia)
CCCCSC1=N/C(=C\c2ccccc2O)C(Cl)=N1	> 100 µM	> 100 µM	> 100 µM	> 100 µM	> 100 µM	> 100 µM	> 100 µM	> 100 µM	> 100 µM	> 100 µM	–
COc1ccc2c(C=O)c3n(c(=O)c2c1OC)CCc1cc2c(cc1-3)OCO2	> 100 µM	30.5 µM	> 100 µM	> 100 µM	> 100 µM	> 100 µM	> 100 µM	> 100 µM	> 100 µM	> 100 µM	–
CCOC(=O)c1ccc(-c2cccs2)[nH]1	> 100 µM	> 100 µM	> 31.6 µM	> 100 µM	> 100 µM	> 100 µM	> 100 µM	> 100 µM	> 100 µM	> 100 µM	–
COc1ccc(OC)c2c(Nc3ccc(S(=O)(=O)O)c4cc(S(=O)(=O)O)cc(S(=O)(=O)O)c34)cc(C)nc12	> 100 µM	> 100 µM	> 100 µM	> 100 µM	> 100 µM	> 100 µM	> 100 µM	> 100 µM	> 100 µM	> 100 µM	–
CCOC(=O)c1c(SCCN(CC)CC)n(-c2ccccc2)c(=S)n(-c2ccccc2)c1=O	> 100 µM	3.87 µM	7.28 µM	3.39 µM	3.33 µM	4.1 µM	15.6 µM	11.9 µM	29.6 µM	40.2 µM	–
CCCCN1/C(=N/Nc2n[nH]c(=O)c3ccccc23)SCC1c1ccc(Cl)cc1 (configuration not stated)	47 µM	> 100 µM	28.7 µM	92.7 µM	–	> 100 µM	24.8 µM	47.1 µM	21.2 µM	> 100 µM	–
COC(=O)c1ccccc1NCc1cc(O)ccc1O	62.5 µM	96.9 µM	41.1 µM	> 57.6 µM	76.9 µM	33.6 µM	> 31.6 µM	35.4 µM	40.1 µM	> 100 µM	–
CCN(CCCl)c1ccc(NC(=O)c2cc(C(=O)NCCN(C)C)cc(C(=O)Nc3ccc(N(CC)CCCl)cc3)c2)cc1	> 100 µM	23.6 µM	> 100 µM	38 µM	5.99 µM	16.3 µM	28 µM	41.4 µM	22.1 µM	19.5 µM	–
N/N=C(\N)SCc1ccc(N=C=S)cc1	> 100 µM	> 100 µM	> 100 µM	> 100 µM	> 100 µM	> 100 µM	> 100 µM	> 100 µM	> 100 µM	> 100 µM	–
CCOP(=O)(OCC)/C(C#N)=C(\C)c1ccco1	> 10 µM	> 10 µM	> 10 µM	> 10 µM	> 10 µM	> 10 µM	> 10 µM	> 10 µM	> 10 µM	> 10 µM	–
CCc1nc2cc(F)ccc2[nH]c1=O	> 100 µM	> 100 µM	> 100 µM	> 100 µM	> 100 µM	> 100 µM	> 100 µM	> 100 µM	> 100 µM	> 100 µM	–
FC(F)(Sc1nc2ccccc2[nH]1)c1nc2ccccc2o1	> 100 µM	> 100 µM	> 100 µM	> 100 µM	> 100 µM	> 100 µM	> 100 µM	> 100 µM	> 100 µM	> 100 µM	–
CCN(CC)CCCNc1nnc(C)c2[nH]c3ccccc3c12	> 100 µM	> 100 µM	> 100 µM	67.2 µM	> 100 µM	45.2 µM	30.9 µM	40.6 µM	> 100 µM	46.8 µM	–
CC(=O)OC1C(C)OC(OC2C[C@](O)(C(C)=O)Cc3c(O)c4c(c(O)c32)C(=O)c2ccccc2C4=O)C(F)C1OC(C)=O (some centres not stated)	9.46 µM	2.14 µM	6.34 µM	4.29 µM	0.112 µM	22.4 µM	1.53 µM	> 31.3 µM	3.65 µM	22.1 µM	–
NNC(=O)COc1nc(-c2cccs2)nc2ccc(I)cc12	91.9 µM	39.4 µM	56 µM	44.8 µM	> 100 µM	> 100 µM	70.4 µM	56.2 µM	55.8 µM	61 µM	16 µM
N#Cc1c(N)n(-c2nc3ccccc3s2)c(=O)c2cc([N+](=O)[O-])ccc12	22.8 µM	> 100 µM	19.4 µM	> 100 µM	19.9 µM	> 52.1 µM	> 65.8 µM	> 100 µM	> 100 µM	98.1 µM	–

SMILES	TGI (NCI/ADR-RES ovarian)	TGI (RPMI-8226 leukemia)	TGI (HCT-15 colon)	TGI (TK-10 renal)	TGI (MOLT-4 leukemia)	TGI (PC-3 prostate)	TGI (NCI-H460 lung)	TGI (SK-MEL-28 melanoma)	TGI (U251 CNS)	TGI (SK-OV-3 ovarian)	GI50 (RPMI-8226 leukemia)
Nc1nc2c(ccc3ccccc32)[nH]1	> 10 µM	> 10 µM	> 10 µM	> 10 µM	> 10 µM	> 10 µM	> 10 µM	> 10 µM	> 10 µM	> 10 µM	–
CCOC(=O)C1(NC(=O)OC(C)(C)C)CCc2[nH]oc(=O)c2C1 (configuration not stated)	> 100 µM	> 100 µM	> 100 µM	> 100 µM	> 100 µM	> 100 µM	> 100 µM	> 100 µM	> 100 µM	> 100 µM	–
N=c1sc(N2CCOCC2)nn1CC(=O)c1ccccc1	> 100 µM	> 100 µM	> 100 µM	> 100 µM	> 100 µM	> 100 µM	> 100 µM	> 100 µM	> 100 µM	> 100 µM	–
Nc1nc(Nc2cc(F)c(Cl)c(F)c2)cc(=O)[nH]1	> 100 µM	> 100 µM	> 100 µM	> 100 µM	> 100 µM	> 100 µM	> 100 µM	> 100 µM	> 100 µM	> 100 µM	–
CC(C)=C[C@@H]1C[C@H](C)[C@H]2CC[C@H](C)[C@H]3C(=O)C(O)=C(C)C(=O)[C@]123	> 100 µM	> 100 µM	> 100 µM	> 100 µM	> 100 µM	> 100 µM	> 100 µM	> 100 µM	> 100 µM	> 100 µM	–
Cc1nnc(N)s/c1=N/O	> 100 µM	> 100 µM	> 100 µM	> 100 µM	> 100 µM	> 100 µM	> 100 µM	> 100 µM	> 100 µM	> 100 µM	–
C(/Cc1ccc2c(c1)OCO2)=N\NC1=NCCCCN1	> 100 µM	> 100 µM	> 100 µM	> 100 µM	> 100 µM	> 100 µM	> 100 µM	> 100 µM	> 100 µM	> 100 µM	–
CNC(=O)N(C)C(=O)c1ccccc1C(=O)N(C)C(=O)NC	> 10 µM	> 10 µM	> 10 µM	> 10 µM	> 10 µM	> 10 µM	> 10 µM	> 10 µM	> 10 µM	> 10 µM	–
CNc1nc(OC)c2c(n1)[n+](C)cn2C	> 100 µM	> 100 µM	> 100 µM	> 100 µM	> 100 µM	> 100 µM	> 100 µM	> 100 µM	> 100 µM	> 100 µM	–
Nc1c(/C=C/c2cc3cc(C4=NCCN4)ccc3o2)[nH]c2cc(C3=NCCN3)ccc12	> 100 µM	> 100 µM	> 100 µM	67 µM	> 100 µM	> 100 µM	> 100 µM	97.4 µM	> 100 µM	> 100 µM	–
CC(C)(C)OC(=O)NCCCCC1NC(=O)[C@@H]2Cc3c([nH]c4ccccc34)C(c3ccccc3)N2C1=O (some centres not stated)	> 100 µM	> 100 µM	> 100 µM	> 100 µM	60.2 µM	> 100 µM	> 100 µM	> 100 µM	> 100 µM	> 100 µM	–
N#Cc1c2c(c(Nc3ccc(Cl)cc3)n3c1nc1ccccc13)CCCC2	> 100 µM	36.1 µM	> 100 µM	> 100 µM	> 100 µM	> 100 µM	> 100 µM	> 100 µM	> 65.4 µM	> 100 µM	–
COc1ccc(/[N+]([O-])=C/c2ccccc2OC(=S)S)cc1	94.9 µM	61 µM	> 100 µM	> 100 µM	> 100 µM	> 100 µM	> 100 µM	> 100 µM	> 100 µM	> 100 µM	–
CCCCC(C)(C/C=C/[C@@H]1[C@@H](C(O)CCCCCC(=O)OC)C(=O)C[C@H]1O[Si](C)(C)C(C)(C)C)O[Si](C)(C)C (some centres not stated)	> 100 µM	> 100 µM	> 100 µM	> 100 µM	59.4 µM	> 100 µM	> 100 µM	> 100 µM	> 100 µM	> 100 µM	–
C/C(=C\CNc1ncnc2c1ncn2CCC#N)CO	> 100 µM	> 100 µM	–	> 100 µM	> 100 µM	> 100 µM	> 100 µM	> 100 µM	–	> 100 µM	–
COc1ccc(-c2cc(-c3ccc(Nc4ccnc5cc(C(F)(F)F)ccc45)cc3)nc(N)c2C#N)c2ccccc12	> 100 µM	> 100 µM	> 100 µM	> 100 µM	> 100 µM	> 100 µM	> 100 µM	–	> 100 µM	> 100 µM	–

Source: PubChem BioAssay (NCI)
